Experiment [1] deals with advanced hematological malignancies. The arrangement: method as in Foran et al., 2019. The following applies: clinic, ref Foran et al., 2019; cited from earlier work.
A further experiment has as its target mutant IDH1^R132H (Homo sapiens, UniProt O75874, R132H). Briefly: IDH1^R132H enzymatic assay (diaphorase/resazurin readout of NADPH). Format: biochemical. The note with it: for Inhibition ratio (%) 50 (μM): compound at 50 μM. The method, then:
This assay added into a 384-well blank plate and then incubated at room temperature for 60 min. […] Curve fitting for dose response IC50 was done using GraphPad Prism.
These 12 ligands were submitted to determine the IC50.
(Alamar Blue is a resazurin reagent that responds to reducing activity.)

The values below come from paper PMC7686577, “Discovery of Novel IDH1 Inhibitor Through Comparative Structure-Based Virtual Screening” (Frontiers in Pharmacology, 2020).

Chain of mutant IDH1^R132H (O75874 whole entry R132H): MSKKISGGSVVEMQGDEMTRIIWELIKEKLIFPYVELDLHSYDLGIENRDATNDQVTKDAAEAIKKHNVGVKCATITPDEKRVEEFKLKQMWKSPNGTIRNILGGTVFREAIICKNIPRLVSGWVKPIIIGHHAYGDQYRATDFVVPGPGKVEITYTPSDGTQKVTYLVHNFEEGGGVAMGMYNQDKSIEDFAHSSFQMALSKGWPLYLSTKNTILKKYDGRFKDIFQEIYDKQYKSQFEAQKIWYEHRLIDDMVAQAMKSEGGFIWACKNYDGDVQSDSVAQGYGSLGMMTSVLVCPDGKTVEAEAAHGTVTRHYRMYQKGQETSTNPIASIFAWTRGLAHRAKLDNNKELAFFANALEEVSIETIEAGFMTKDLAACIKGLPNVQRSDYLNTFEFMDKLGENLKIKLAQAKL

In the case of `N#Cc1ccnc(N2C(=O)CC[C@H]2C(=O)N(c2cncc(F)c2)[C@H](C(=O)NC2CC(F)(F)C2)c2ccccc2Cl)c1` [AG-120], the “total overall response rate” value in experiment [1] was 42%.

For the compound `COc1ccc(C(=O)[C@@H](Cn2cncn2)[C@H](Sc2ccccc2)c2ccccc2)cc1` [AQ-714/41674992], at mutant IDH1^R132H, the IC50 (in general, the concentration that gives 50% inhibition) came out at 20.8 ± 4.2 µM and the “Inhibition ratio (%) 50 (μM)” value amounted to 73.30±1.90%.

As to `O=C1C[C@H](C(=O)N(Cc2cccc3ccccc23)c2ccccn2)CN1Cc1ccccc1` [D491-0852], on mutant IDH1^R132H, the IC50 was 46.9 ± 6 µM and the “Inhibition ratio (%) 50 (μM)” value came out at 58.00±0.60%.

For `CCC[C@@H]1N=C2c3ccccc3N=C(S[C@@H](CC)C(=O)Nc3cccc(Cl)c3)N2C1=O` [G568-0082], on mutant IDH1^R132H, the IC50 was determined as 41.9 ± 8 µM and the “Inhibition ratio (%) 50 (μM)” value came to 54.30±4.30%.

For the compound `CCOC(=O)c1[nH]c(C)c(CN(Cc2ccccc2)C(=O)[C@@H](C)Oc2ccccc2)c1C` [G798-0506], at mutant IDH1^R132H, the IC50 came to 38 ± 2 µM and the “Inhibition ratio (%) 50 (μM)” value turned out to be 61.15±6.15%.

`O=C(NCc1ccc(C(F)(F)F)cc1)c1nnn(-c2ccccc2Cl)c1-c1cccnc1` [L806-0255]: at mutant IDH1^R132H, inhibition was half-maximal at 28.3 ± 2.5 µM (IC50) and the “Inhibition ratio (%) 50 (μM)” value was 66.25±3.25%.

As for `O=C1CS[C@@H](c2cccc(NS(=O)(=O)c3ccc4ccccc4c3)c2)N1c1ccc(F)cc1` [V010-1281], on mutant IDH1^R132H, it took 50 ± 6.4 µM to reach half-maximal inhibition (IC50) and the “Inhibition ratio (%) 50 (μM)” value is 60.85±2.05%.

Take `O=C1C[C@H](C(=O)N(CCc2ccccc2)Cc2ccccc2)CN1Cc1cccc(Br)c1` [V015-1671]: at mutant IDH1^R132H, half-maximal inhibition (IC50) was put at 23.8 ± 1.8 µM and the “Inhibition ratio (%) 50 (μM)” value stood at 65.30±2.30%.

Turning to `O=C(Cc1ccc(N(Cc2ccccc2)C(=O)c2cccc(F)c2)cc1)NCc1cccnc1` [V016-3750], at mutant IDH1^R132H, the IC50 came out at 42.9 ± 2.8 µM and the “Inhibition ratio (%) 50 (μM)” value turned out to be 54.90±1.70%.

Regarding `CN(CC(=O)N1N=C(c2ccccc2Cl)C[C@H]1c1ccc2c(c1)OCO2)C(=O)C1CCCC1` [V025-9252], at mutant IDH1^R132H, the IC50 came out at 45.5 ± 3.1 µM and the “Inhibition ratio (%) 50 (μM)” value was determined as 59.15±3.75%.
